Assay results reported in US20100009907A1, “Glucagon-Like Peptides and Uses Thereof” (AMYLIN PHARMACEUTICALS, INC., priority 2006, published 2010).
Where no end group is shown, it is not given here.

Legend:
[1] = target: T1, rat thyroid carcinoma 6-23 clone 6 cells expressing endogenous GLP-1 receptors (Rattus norvegicus, UniProt P32301); assay: GLP-1 cAMP (6-23) cyclase assay; type: cell-based
T1 construct: rat thyroid carcinoma 6-23 clone 6 cells or RINm5F insulinoma cells expressing endogenous GLP-1 receptors; endogenous in cells; host or cells: rat thyroid carcinoma 6-23 clone 6 cells
T1 sequence (P32301 22-463): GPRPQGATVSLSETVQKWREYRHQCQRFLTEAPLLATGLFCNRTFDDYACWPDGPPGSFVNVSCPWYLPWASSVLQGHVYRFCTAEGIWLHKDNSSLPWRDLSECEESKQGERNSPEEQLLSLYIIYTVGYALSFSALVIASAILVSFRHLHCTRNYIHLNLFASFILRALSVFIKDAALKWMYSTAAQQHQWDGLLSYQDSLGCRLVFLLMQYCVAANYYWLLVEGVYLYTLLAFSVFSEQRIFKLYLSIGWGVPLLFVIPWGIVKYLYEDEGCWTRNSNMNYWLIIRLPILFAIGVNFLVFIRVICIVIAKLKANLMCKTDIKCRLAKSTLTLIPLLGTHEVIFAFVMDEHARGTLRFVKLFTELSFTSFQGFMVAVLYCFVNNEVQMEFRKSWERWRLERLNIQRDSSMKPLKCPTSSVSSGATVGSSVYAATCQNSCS
Procedure: (§1) Cells, and peptide or buffer solutions are combined in 384-well plates and incubated at room temperature in air for 30-minutes. cAMP content can then be measured according to recommendations in the Perkin-Elmer AlphaScreen™ kit instructions using the Perkin Elmer Fusion fluorimeter and data are analyzed using XLfit software (IDBS).

[2] = Acute food intake assay (FI Assay); type: in vivo, NIH/Swiss mice; conditions: 1000 μg/kg intraperitoneal, relative to vehicle
Procedure: The effect of various test peptides on food intake is investigated using an acute food intake assay. This assay measures food consumption in lean, group-housed, overnight-fasted NIH/Swiss mice. Twelve mice are housed three to a cage. […] Decreased, as well as increased, food intake is measured. Testing of the various doses of the polypeptide generates ED50s.
Female NIH/Swiss mice (8-24 weeks old) are group housed with a 12:12 hour light:dark cycle with lights on at 0600. Water and a standard pelleted mouse chow diet are available ad libitum, except as noted. Animals are fasted starting at approximately 1500 hrs, 1 day prior to experiment. The morning of the experiment, animals are divided into experimental groups.
At time=0 min, all animals are given an intraperitoneal injection of vehicle or compound in an amount ranging from about 63 to 1000 μg/kg, and immediately given a pre-weighed amount (10-15 g) of the standard chow.

[3] = target: T2, GLP-1 receptor (RINm5F cell membranes) (Rattus norvegicus, UniProt P32301); assay: GLP-1 receptor binding assay (GLP RBA), [125I]GLP-1 displacement; conditions: [125I]GLP-1 tracer
T2 construct: RINm5F insulinoma cells expressing endogenous GLP-1 receptors; endogenous in cells; host or cells: RINm5F cell membranes
T2 sequence (P32301 22-463): T1 sequence (P32301 22-463)
Procedure: Reaction mixtures are filtered through glass filter pads presoaked with 0.3% PEI solution and rinsed with ice-cold phosphate buffered saline. Bound counts are determined using a scintillation counter. Binding affinities are calculated using GraphPad Prism software (GraphPad Software, Inc., San Diego, Calif.).

[4] = target: T3, RINm5f cells expressing endogenous GLP-1, calcitonin, and GIP receptors (Rattus norvegicus, UniProt P32301); assay: GLP/GIP/CT cAMP (RIN) assay; type: cell-based
T3 construct: RINm5f cells expressing endogenous GLP-1, calcitonin, and GIP receptors; endogenous in cells; host or cells: RINm5f cells
T3 sequence (P32301 22-463): T1 sequence (P32301 22-463)
Procedure: In addition, receptor binding can be measured using cells prepared from confluent cultures of RINm5f cells expressing endogenous GLP-1, calcitonin, and GIP receptors. Cells, and peptide or buffer solution are combined in 384-well plates. After a 30-minute incubation at room temperature in air, cAMP content is measured as recommended in the Perkin-Elmer AlphaScreen kit instructions.
as §1

DPP-IV = DPP-IV (Homo sapiens, UniProt P27487); assay: Stability by DPP IV assay; type: in vitro ADME; conditions: isolated DPP-IV enzyme, DPP-IV approximately 5 mUnit, 37° C., intact peptide remaining, read-out: DDP IV % Stable
DPP-IV, sequence (P27487 whole entry, species assumed): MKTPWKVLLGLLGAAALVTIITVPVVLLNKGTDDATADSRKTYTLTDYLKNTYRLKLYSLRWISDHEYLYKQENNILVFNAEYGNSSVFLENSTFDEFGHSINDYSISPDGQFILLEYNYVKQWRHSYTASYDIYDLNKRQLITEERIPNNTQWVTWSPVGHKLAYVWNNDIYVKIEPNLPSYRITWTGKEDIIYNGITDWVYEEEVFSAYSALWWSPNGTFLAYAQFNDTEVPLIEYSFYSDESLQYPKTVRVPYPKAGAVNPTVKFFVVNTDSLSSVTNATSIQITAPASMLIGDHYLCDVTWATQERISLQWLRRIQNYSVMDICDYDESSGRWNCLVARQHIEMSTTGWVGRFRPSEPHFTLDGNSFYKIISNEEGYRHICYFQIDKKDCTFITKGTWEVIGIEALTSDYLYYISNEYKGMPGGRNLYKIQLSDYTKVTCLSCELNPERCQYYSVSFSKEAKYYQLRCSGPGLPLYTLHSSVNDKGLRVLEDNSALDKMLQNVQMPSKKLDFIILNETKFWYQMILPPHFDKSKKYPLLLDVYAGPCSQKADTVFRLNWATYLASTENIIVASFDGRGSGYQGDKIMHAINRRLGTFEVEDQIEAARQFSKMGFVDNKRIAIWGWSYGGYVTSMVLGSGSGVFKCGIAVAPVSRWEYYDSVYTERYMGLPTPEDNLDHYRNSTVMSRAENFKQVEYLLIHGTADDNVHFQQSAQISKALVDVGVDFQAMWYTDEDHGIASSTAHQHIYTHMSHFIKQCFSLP
Procedure: DPP-IV, approximately 5 mUnit in 5 mM Tris-HCl was added to 625 μL HEPES buffer (25 mM) in a 1.5 mL polypropylene microcentrifuge tube with an O-ring seal to prevent evaporation. Peptide stock solution, 70 μL (300 μM in 50% acetonitrile) was carefully added to this and mixed by brief manual shaking. Next, the solution was aliquoted into six tubes (6×100 μl. One tube contained 200 μL Stop solution (50% acetonitrile and 1% formic acid) that was used to determine the initial concentration of peptide (t=0). All six aliquots were then incubated at 37° C. while mixing at 500 RPM in the Vortemp 56 incubator. The digestion was stopped at 10 min intervals by adding 200 μL stop solution. The tube was then placed back into the incubator for 50 min. The solution was centrifuged at 19000×g for 10 minutes at room temperature. The supernatant was removed and 200 μL supernatant was transferred to an autosampler vials for analysis.
The most intense ion of the intact peptide was monitored to determine the rates of degradation and to quantify the amount of intact peptide remaining in the solution.

| Molecule | EC50 [1] | Food Intake % inhibition 30 min [2] | Food Intake % inhibition 60 min [2] | Food Intake % inhibition 120 min [2] | IC50 [3] | GLP/GIP/CT cAMP(RIN) EC50 [4] | other results |
| --- | --- | --- | --- | --- | --- | --- | --- |
| CC[C@H](C)[C@H](NC(=O)[C@H](CC(C)C)NC(=O)[C@H](Cc1c[nH]c2ccccc12)NC(=O)[C@H](CCC(=O)O)NC(=O)[C@@H](NC(=O)[C@H](Cc1ccccc1)NC(=O)[C@H](CCC(=O)O)NC(=O)[C@H](CCCCN)NC(=O)[C@H](C)NC(=O)[C@H](C)NC(=O)[C@H](CCCCN)NC(=O)[C@H](CCC(=O)O)NC(=O)[C@H](CCC(=O)O)NC(=O)[C@H](CC(C)C)NC(=O)[C@H](Cc1ccc(O)cc1)NC(=O)[C@H](CCC(=O)O)NC(=O)[C@@H](NC(=O)[C@@H](NC(=O)[C@H](CC(=O)O)NC(=O)[C@H](CC(N)=O)NC(=O)[C@@H](NC(=O)[C@H](Cc1ccc(O)cc1)NC(=O)[C@@H](NC(=O)CNC(=O)[C@H](CCC(=O)O)NC(=O)[C@H](C)NC(=O)[C@@H](N)Cc1c[nH]cn1)[C@@H](C)O)[C@@H](C)O)C(C)C)[C@@H](C)O)[C@@H](C)CC)C(N)=O [compound 42] | 0.22 nM |  |  |  |  |  |  |
| HAEGTYTNDTEYLEEKAAKEFIEWLIKGKPKKIRYS-NH2 (C-terminus assumed) [compound 39] | > 1000 nM |  |  |  |  |  |  |
| CC[C@H](C)[C@H](NC(=O)[C@H](Cc1ccccc1)NC(=O)[C@H](CCC(=O)O)NC(=O)[C@H](CCCCN)NC(=O)[C@H](C)NC(=O)[C@H](C)NC(=O)[C@H](CCC(N)=O)NC(=O)CNC(=O)[C@H](CCC(=O)O)NC(=O)[C@H](CC(C)C)NC(=O)[C@H](Cc1ccc(O)cc1)NC(=O)[C@H](CO)NC(=O)[C@H](CO)NC(=O)[C@@H](NC(=O)[C@H](CC(=O)O)NC(=O)[C@H](CO)NC(=O)[C@@H](NC(=O)[C@H](Cc1ccccc1)NC(=O)[C@@H](NC(=O)CNC(=O)[C@H](CCC(=O)O)NC(=O)[C@H](C)NC(=O)[C@@H](N)Cc1c[nH]cn1)[C@@H](C)O)[C@@H](C)O)C(C)C)C(=O)N[C@@H](C)C(=O)N[C@@H](Cc1c[nH]c2ccccc12)C(=O)N[C@@H](CC(C)C)C(=O)N[C@H](C(=O)N[C@@H](CCCCN)C(=O)NCC(=O)N[C@@H](CCCNC(=N)N)C(N)=O)C(C)C [compound 3] |  | 13% | 13% | 11% |  |  |  |
| HAEGTYTNDVTEYLEEAAKEFIEWLIKGKPKKIRYS-NH2 (C-terminus assumed) [compound 30] | > 1000 nM |  |  |  |  |  |  |
| HAEFTYTNDVTEYLEEKAAKEFIEWLIKGGPSSGAPPPS-NH2 [compound 19] |  | 51% | 67% | 75% |  |  | Food Intake % inhibition 180 min [2]: 77% |
| CC[C@H](C)[C@H](NC(=O)[C@H](CC(C)C)NC(=O)[C@H](Cc1c[nH]c2ccccc12)NC(=O)[C@H](CCC(=O)O)NC(=O)[C@@H](NC(=O)[C@H](Cc1ccccc1)NC(=O)[C@H](CCC(=O)O)NC(=O)[C@H](CCCCN)NC(=O)[C@H](C)NC(=O)[C@H](C)NC(=O)[C@H](CCCCN)NC(=O)[C@H](CCC(=O)O)NC(=O)[C@H](CCC(=O)O)NC(=O)[C@H](CC(C)C)NC(=O)[C@H](Cc1ccc(O)cc1)NC(=O)[C@H](CCC(=O)O)NC(=O)[C@@H](NC(=O)[C@@H](NC(=O)[C@H](CC(=O)O)NC(=O)[C@H](CC(N)=O)NC(=O)[C@@H](NC(=O)[C@H](Cc1ccc(O)cc1)NC(=O)[C@@H](NC(=O)CNC(=O)[C@H](CCC(=O)O)NC(=O)[C@H](C)NC(=O)[C@@H](N)Cc1c[nH]cn1)[C@@H](C)O)[C@@H](C)O)C(C)C)[C@@H](C)O)[C@@H](C)CC)C(=O)N[C@@H](CCCCN)C(=O)NCC(=O)N[C@@H](CCCCN)C(=O)N1CCC[C@H]1C(=O)N[C@@H](CCCCN)C(=O)N[C@@H](CCCCN)C(=O)N[C@H](C(=O)N[C@@H](CCCNC(=N)N)C(=O)N[C@@H](Cc1ccc(O)cc1)C(=O)N[C@@H](CO)C(N)=O)[C@@H](C)CC [compound 2] |  |  |  |  | 0.1 nM | 0.36 nM |  |
| CC[C@H](C)[C@H](NC(=O)[C@H](CC(C)C)NC(=O)[C@H](Cc1c[nH]c2ccccc12)NC(=O)[C@H](CC(=O)O)NC(=O)[C@@H](NC(=O)[C@H](Cc1ccccc1)NC(=O)[C@H](CCC(=O)O)NC(=O)[C@H](CCCCN)NC(=O)[C@H](C)NC(=O)[C@H](C)NC(=O)[C@H](CCCCN)NC(=O)[C@H](CCC(=O)O)NC(=O)[C@H](CC(=O)O)NC(=O)[C@H](CC(C)C)NC(=O)[C@H](CCC(N)=O)NC(=O)[C@H](CCC(N)=O)NC(=O)[C@@H](NC(=O)[C@@H](NC(=O)[C@H](CC(=O)O)NC(=O)[C@H](CO)NC(=O)[C@@H](NC(=O)[C@H](Cc1ccccc1)NC(=O)[C@@H](NC(=O)CNC(=O)[C@H](CCC(=O)O)NC(=O)[C@H](C)NC(=O)[C@@H](N)Cc1c[nH]cn1)[C@@H](C)O)[C@@H](C)O)C(C)C)[C@@H](C)O)[C@@H](C)CC)C(=O)N[C@@H](CC(N)=O)C(=O)NCC(=O)NCC(=O)N1CCC[C@H]1C(=O)N[C@@H](CO)C(=O)N[C@@H](CCCCN)C(=O)N[C@@H](CCC(=O)O)C(=O)N[C@H](C(=O)N[C@H](C(=O)N[C@@H](CO)C(=O)O)[C@@H](C)CC)[C@@H](C)CC [compound 1] |  | 56% | 69% | 73% | 3 nM | 1.9 nM | remaining at 50 min, 30 µM (DPP-IV): 99%; Food Intake % inhibition 180 min [2]: 72% |
| EGTYTNDVTEYLEEKAAKEFIEWLIKGKPKKIRYS-NH2 (C-terminus assumed) [compound 37] | > 1000 nM |  |  |  | 22 nM |  |  |
| HAEGTFTSDVTQQLDEKAAKEFIDWLINPGSEGIKSI-NH2 (C-terminus assumed) [compound 14] |  |  |  |  | 18 nM | 18 nM |  |
| HGEGTYTNDVTEYLEEKAAKEFIEWLIKGKPKKIRYS-NH2 (C-terminus assumed) [compound 26] |  |  |  |  | 0.11 nM | 0.967 nM |  |
